{"source": "paper PMC3857843", "about": "“Multiple Transport-Active Binding Sites Are Available for a Single Substrate on Human P-Glycoprotein (ABCB1)” (PLoS ONE, 2013)", "test_in_all_cases": "Transport of fluorescent substrates in BacMam-transduced HeLa cells (flow cytometry)", "key": {"F343C mutant Pgp": {"target": "F343C mutant Pgp (Homo sapiens, UniProt P08183, C1074A/C1125A/C1227A/C137A/C431A/C717A/C956A/F343C)", "sequence (P08183 whole entry C137A/F343C/C431A/C717A/C956A/C1074A/C1125A/C1227A)": "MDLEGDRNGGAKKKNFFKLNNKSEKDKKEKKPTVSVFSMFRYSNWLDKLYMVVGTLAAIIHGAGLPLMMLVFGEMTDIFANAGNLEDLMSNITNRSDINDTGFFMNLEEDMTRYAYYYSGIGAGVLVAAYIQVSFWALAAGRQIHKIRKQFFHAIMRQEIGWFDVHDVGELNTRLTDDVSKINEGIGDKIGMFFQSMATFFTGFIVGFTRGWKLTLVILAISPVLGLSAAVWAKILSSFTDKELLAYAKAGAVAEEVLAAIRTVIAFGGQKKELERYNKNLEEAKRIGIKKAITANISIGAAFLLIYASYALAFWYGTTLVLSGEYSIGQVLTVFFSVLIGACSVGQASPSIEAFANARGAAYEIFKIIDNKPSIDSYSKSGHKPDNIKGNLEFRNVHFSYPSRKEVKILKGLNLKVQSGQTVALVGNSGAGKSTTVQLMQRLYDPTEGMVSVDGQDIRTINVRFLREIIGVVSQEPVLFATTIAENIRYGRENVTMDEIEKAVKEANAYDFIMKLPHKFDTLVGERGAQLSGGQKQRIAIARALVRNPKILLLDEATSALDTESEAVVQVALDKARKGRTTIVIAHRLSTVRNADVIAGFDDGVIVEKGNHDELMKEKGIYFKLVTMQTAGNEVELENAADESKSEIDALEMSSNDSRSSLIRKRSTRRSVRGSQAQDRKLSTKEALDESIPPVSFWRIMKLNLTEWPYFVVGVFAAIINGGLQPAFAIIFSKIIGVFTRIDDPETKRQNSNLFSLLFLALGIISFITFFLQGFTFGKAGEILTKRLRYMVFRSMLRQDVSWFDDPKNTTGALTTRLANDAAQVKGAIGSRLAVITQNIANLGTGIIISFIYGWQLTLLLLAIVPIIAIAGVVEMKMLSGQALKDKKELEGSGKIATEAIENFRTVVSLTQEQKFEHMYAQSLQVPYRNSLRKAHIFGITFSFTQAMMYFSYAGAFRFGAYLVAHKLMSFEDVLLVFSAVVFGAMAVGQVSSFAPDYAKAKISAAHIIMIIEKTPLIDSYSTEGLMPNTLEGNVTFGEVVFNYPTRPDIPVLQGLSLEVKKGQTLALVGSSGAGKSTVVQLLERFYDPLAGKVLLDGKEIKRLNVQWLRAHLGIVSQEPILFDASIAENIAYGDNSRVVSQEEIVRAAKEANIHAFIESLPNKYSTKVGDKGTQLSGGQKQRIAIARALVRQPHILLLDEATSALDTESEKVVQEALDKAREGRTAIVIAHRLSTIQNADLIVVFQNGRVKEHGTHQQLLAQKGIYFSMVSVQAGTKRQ", "conditions": "compared to cysless WT Pgp (taken as 100%), calcein-AM 0.5 µM 10 min, Rh123 […], other substrates 0.5 µM 45 min", "procedure": "(§1) The BacMam-Pgp virus (encoding cysless WT and the mutant Pgps) was added to 2.5 million HeLa cells at a titer of 50-60 viral particles per cell in 3 ml of DMEM and incubated at 37°C [30]. After 1 hr DMEM was added to make a total of 20 ml in the flask and these infected cells were further incubated for 3-4 hrs. 10 mM butyric acid was then added and the cells continued to incubate at 37°C. After 24 hrs, the cells were trypsinized, washed, counted and analyzed by flow cytometry for cell surface expression and the function of the wildtype and mutant Pgps.\n(§2) The transport function of cysless WT and mutant Pgps was determined using fluorescent compounds with flow cytometry as previously described. […] Cells were washed with cold PBS and resuspended in PBS containing 0.1% BSA before analysis."}, "F343C/V982C mutant Pgp": {"target": "F343C/V982C mutant Pgp (Homo sapiens, UniProt P08183, C1074A/C1125A/C1227A/C137A/C431A/C717A/C956A/F343C/V982C)", "sequence (P08183 whole entry C137A/F343C/C431A/C717A/C956A/V982C/C1074A/C1125A/C1227A)": "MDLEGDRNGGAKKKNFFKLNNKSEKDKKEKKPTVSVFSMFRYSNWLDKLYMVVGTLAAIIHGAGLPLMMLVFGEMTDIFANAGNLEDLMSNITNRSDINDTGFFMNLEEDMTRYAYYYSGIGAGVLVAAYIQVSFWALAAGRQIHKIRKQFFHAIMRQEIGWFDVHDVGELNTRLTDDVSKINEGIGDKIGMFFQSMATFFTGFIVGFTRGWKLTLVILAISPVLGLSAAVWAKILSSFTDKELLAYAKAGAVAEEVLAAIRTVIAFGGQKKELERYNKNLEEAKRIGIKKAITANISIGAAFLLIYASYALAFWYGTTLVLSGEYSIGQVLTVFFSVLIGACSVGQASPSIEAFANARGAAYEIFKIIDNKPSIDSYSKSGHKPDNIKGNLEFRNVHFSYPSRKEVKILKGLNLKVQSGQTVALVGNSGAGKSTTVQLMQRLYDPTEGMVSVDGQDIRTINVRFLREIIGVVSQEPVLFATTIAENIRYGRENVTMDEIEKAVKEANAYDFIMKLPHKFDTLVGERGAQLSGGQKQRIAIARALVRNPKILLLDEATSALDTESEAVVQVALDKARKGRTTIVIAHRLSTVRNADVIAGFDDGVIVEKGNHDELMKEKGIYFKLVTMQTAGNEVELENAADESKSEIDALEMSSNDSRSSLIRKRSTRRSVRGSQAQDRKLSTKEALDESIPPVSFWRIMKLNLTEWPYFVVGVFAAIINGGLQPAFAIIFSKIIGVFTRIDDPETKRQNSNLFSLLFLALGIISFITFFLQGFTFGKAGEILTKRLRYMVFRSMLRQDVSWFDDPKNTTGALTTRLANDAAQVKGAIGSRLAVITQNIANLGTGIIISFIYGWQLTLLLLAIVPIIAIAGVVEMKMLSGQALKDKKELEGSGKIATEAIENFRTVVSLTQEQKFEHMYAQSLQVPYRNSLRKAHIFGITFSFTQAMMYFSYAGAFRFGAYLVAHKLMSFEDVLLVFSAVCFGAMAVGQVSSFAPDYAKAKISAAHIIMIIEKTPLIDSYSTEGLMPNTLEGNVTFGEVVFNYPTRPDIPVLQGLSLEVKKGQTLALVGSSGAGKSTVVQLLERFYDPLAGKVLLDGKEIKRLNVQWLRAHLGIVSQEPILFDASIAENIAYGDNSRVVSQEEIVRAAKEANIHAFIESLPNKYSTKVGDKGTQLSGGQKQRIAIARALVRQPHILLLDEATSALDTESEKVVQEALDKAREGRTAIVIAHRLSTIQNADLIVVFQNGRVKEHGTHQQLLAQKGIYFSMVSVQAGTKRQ", "conditions": "compared to cysless WT Pgp (taken as 100%), calcein-AM 0.5 µM 10 min, Rh123 […], other substrates 0.5 µM 45 min", "procedure": "as §1, §2"}, "F728C mutant Pgp": {"target": "F728C mutant Pgp (Homo sapiens, UniProt P08183, C1074A/C1125A/C1227A/C137A/C431A/C717A/C956A/F728C)", "conditions": "compared to cysless WT Pgp (taken as 100%), calcein-AM 0.5 µM 10 min, Rh123 […], other substrates 0.5 µM 45 min", "procedure": "as §1, §2"}, "F728C/V982C mutant Pgp": {"target": "F728C/V982C mutant Pgp (Homo sapiens, UniProt P08183, C1074A/C1125A/C1227A/C137A/C431A/C717A/C956A/F728C/V982C)", "conditions": "compared to cysless WT Pgp (taken as 100%), calcein-AM 0.5 µM 10 min, Rh123 […], other substrates 0.5 µM 45 min", "procedure": "as §1, §2"}, "F978C mutant Pgp": {"target": "F978C mutant Pgp (Homo sapiens, UniProt P08183, C1074A/C1125A/C1227A/C137A/C431A/C717A/C956A/F978C)", "sequence (P08183 whole entry C137A/C431A/C717A/C956A/F978C/C1074A/C1125A/C1227A)": "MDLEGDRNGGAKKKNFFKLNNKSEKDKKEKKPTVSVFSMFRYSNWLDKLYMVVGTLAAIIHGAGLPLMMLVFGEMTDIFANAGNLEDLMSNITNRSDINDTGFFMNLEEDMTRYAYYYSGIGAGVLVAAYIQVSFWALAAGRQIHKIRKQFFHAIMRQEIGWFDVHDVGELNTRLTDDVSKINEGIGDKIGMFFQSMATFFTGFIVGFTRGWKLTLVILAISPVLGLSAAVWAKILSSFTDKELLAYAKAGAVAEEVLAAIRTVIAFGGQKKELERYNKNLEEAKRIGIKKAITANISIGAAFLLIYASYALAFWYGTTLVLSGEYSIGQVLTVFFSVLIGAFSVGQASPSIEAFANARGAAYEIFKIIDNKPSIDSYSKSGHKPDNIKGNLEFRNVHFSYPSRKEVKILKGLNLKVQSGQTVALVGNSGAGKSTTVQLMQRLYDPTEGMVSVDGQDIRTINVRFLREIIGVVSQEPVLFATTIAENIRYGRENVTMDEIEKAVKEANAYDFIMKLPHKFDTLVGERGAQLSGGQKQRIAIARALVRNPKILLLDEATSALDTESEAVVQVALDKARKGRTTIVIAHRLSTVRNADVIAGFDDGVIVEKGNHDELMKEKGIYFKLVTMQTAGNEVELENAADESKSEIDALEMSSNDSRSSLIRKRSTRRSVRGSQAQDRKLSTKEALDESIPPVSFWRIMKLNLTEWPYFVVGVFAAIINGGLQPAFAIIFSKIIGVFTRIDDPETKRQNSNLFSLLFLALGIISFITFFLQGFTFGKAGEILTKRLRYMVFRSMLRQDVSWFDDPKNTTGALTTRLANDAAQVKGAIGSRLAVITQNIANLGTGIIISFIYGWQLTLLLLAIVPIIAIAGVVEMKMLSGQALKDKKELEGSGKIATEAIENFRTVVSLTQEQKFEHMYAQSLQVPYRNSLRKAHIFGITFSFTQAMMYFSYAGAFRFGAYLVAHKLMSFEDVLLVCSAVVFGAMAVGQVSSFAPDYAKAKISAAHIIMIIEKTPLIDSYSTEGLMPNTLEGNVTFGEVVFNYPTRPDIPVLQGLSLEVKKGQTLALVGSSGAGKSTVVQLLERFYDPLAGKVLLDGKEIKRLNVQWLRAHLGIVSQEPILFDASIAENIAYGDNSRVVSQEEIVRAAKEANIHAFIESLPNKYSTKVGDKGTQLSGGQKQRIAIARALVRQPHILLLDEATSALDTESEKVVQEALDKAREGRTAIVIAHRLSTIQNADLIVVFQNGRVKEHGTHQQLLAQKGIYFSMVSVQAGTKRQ", "conditions": "compared to cysless WT Pgp (taken as 100%), calcein-AM 0.5 µM 10 min, Rh123 […], other substrates 0.5 µM 45 min", "procedure": "as §1, §2"}, "Q725C mutant Pgp": {"target": "Q725C mutant Pgp (Homo sapiens, UniProt P08183, C1074A/C1125A/C1227A/C137A/C431A/C717A/C956A/Q725C)", "sequence (P08183 whole entry C137A/C431A/C717A/Q725C/C956A/C1074A/C1125A/C1227A)": "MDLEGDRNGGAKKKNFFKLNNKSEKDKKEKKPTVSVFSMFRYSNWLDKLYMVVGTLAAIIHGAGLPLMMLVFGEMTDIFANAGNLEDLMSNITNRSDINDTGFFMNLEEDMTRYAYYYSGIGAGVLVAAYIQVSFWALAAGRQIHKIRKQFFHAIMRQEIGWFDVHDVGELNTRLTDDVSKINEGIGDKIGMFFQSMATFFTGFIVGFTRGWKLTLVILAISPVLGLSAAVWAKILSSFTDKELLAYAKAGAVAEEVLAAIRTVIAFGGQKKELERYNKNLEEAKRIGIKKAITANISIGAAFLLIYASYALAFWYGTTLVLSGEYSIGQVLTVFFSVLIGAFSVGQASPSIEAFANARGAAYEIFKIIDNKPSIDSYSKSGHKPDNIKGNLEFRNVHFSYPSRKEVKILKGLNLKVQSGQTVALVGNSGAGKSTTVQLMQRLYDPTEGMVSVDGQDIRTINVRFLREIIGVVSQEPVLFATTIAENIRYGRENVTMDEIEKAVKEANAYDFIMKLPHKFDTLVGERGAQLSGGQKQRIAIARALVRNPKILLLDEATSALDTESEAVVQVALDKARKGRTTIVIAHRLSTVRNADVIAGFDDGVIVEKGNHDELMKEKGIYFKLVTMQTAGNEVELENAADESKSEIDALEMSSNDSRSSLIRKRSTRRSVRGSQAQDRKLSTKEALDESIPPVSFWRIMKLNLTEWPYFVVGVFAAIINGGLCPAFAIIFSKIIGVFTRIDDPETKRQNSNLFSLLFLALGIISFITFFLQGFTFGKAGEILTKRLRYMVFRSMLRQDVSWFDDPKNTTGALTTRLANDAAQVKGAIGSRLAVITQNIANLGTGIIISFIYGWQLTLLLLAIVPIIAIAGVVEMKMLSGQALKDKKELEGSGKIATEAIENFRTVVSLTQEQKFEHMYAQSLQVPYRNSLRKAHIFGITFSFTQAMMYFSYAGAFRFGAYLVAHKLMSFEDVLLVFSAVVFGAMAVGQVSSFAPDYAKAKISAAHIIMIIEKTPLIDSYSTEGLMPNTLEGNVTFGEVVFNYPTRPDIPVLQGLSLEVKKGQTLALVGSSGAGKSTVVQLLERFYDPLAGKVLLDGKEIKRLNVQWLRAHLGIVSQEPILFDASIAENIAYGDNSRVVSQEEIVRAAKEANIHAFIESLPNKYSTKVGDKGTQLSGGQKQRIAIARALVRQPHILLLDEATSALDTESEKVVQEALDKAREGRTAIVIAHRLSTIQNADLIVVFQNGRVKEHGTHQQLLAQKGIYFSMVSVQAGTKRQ", "conditions": "compared to cysless WT Pgp (taken as 100%), calcein-AM 0.5 µM 10 min, Rh123 […], other substrates 0.5 µM 45 min", "procedure": "as §1, §2"}, "Q725C/V982C mutant Pgp": {"target": "Q725C/V982C mutant Pgp (Homo sapiens, UniProt P08183, C1074A/C1125A/C1227A/C137A/C431A/C717A/C956A/Q725C/V982C)", "conditions": "compared to cysless WT Pgp (taken as 100%), calcein-AM 0.5 µM 10 min, Rh123 […], other substrates 0.5 µM 45 min", "procedure": "as §1, §2"}, "V982C mutant Pgp": {"target": "V982C mutant Pgp (Homo sapiens, UniProt P08183, C1074A/C1125A/C1227A/C137A/C431A/C717A/C956A/V982C)", "conditions": "compared to cysless WT Pgp (taken as 100%), calcein-AM 0.5 µM 10 min, Rh123 […], other substrates 0.5 µM 45 min", "procedure": "as §1, §2"}, "Y307C mutant Pgp": {"target": "Y307C mutant Pgp (Homo sapiens, UniProt P08183, C1074A/C1125A/C1227A/C137A/C431A/C717A/C956A/Y307C)", "conditions": "compared to cysless WT Pgp (taken as 100%), calcein-AM 0.5 µM 10 min, Rh123 […], other substrates 0.5 µM 45 min", "procedure": "as §1, §2"}, "[1]": {"target": "Y307C/Q725C/V982C mutant Pgp (Homo sapiens, UniProt P08183, C1074A/C1125A/C1227A/C137A/C431A/C717A/C956A/Q725C/V982C/Y307C)", "conditions": "Y307/Q725C/V982C in HeLa cells; compared to cysless WT Pgp (taken as 100%); calcein-AM 0.5 µM 10 min, Rh123 […], other substrates 0.5 µM 45 min", "procedure": "as §1, §2"}, "Y307C/V982C mutant Pgp": {"target": "Y307C/V982C mutant Pgp (Homo sapiens, UniProt P08183, C1074A/C1125A/C1227A/C137A/C431A/C717A/C956A/V982C/Y307C)", "conditions": "compared to cysless WT Pgp (taken as 100%), calcein-AM 0.5 µM 10 min, Rh123 […], other substrates 0.5 µM 45 min", "procedure": "as §1, §2"}}, "data": [{"compound": "CC(=O)OCOC(=O)CN(CC(=O)OCOC(C)=O)Cc1cc2c(cc1OC(C)=O)Oc1cc(OC(C)=O)c(CN(CC(=O)OCOC(C)=O)CC(=O)OCOC(C)=O)cc1C21OC(=O)c2ccccc21", "note": "[CalAM, calcein-AM]", "values": [{"measurement": "Transport function", "setting": "F343C mutant Pgp", "result": "90-100%"}, {"measurement": "Transport function", "setting": "F343C/V982C mutant Pgp", "result": "90-100%"}, {"measurement": "Transport function", "setting": "F728C mutant Pgp", "result": "90-100%"}, {"measurement": "Transport function", "setting": "F728C/V982C mutant Pgp", "result": "55-65%"}, {"measurement": "Transport function", "setting": "F978C mutant Pgp", "result": "90-100%"}, {"measurement": "Transport function", "setting": "Q725C mutant Pgp", "result": "90-100%"}, {"measurement": "Transport function", "setting": "Q725C/V982C mutant Pgp", "result": "90-100%"}, {"measurement": "Transport function", "setting": "V982C mutant Pgp", "result": "90-100%"}, {"measurement": "Transport function", "setting": "Y307C mutant Pgp", "result": "90-100%"}, {"measurement": "Transport function", "setting": "[1]", "result": "90-100%"}, {"measurement": "Transport function", "setting": "Y307C/V982C mutant Pgp", "result": "90-100%"}]}]}
